Reference: paper PMC11395237, “Characteristics of a Novel Zearalenone Lactone Hydrolase ZHRnZ and Its Thermostability Modification” (International Journal of Molecular Sciences, 2024)

How the values were obtained:
Test in all cases: HPLC-fluorescence of residual substrate
Format in all cases: biochemical
Conditions in all cases: read-out: Km (μg.mL^-1); pH 9.0, 45 °C, 10 min, 25 μg/mL enzyme, 10-60 μg/mL ZEN
ZHRnZ [1] = molecular target: T1, ZHRnZ (Rosellinia necatrix, UniProt A0A1W2TNW3)
T1 construct: gene SAMD00023353_4301030; His-tag from pET28a (BamHI/XhoI), codon-optimized gene, E. coli BL21(DE3), Ni-NTA purified; homodimer by homology model
Description: (§1) HPLC-fluorescence of residual substrate on ZHRnZ

ZHRnZ [2] = molecular target: T2, ZHRnZ (Rosellinia necatrix, UniProt A0A1W2TNW3, E122Q)
T2 construct: gene SAMD00023353_4301030; His-tag from pET28a (BamHI/XhoI), codon-optimized gene, E. coli BL21(DE3), Ni-NTA purified; homodimer by homology model
Description: as §1

ZHRnZ [3] = molecular target: T3, ZHRnZ (Rosellinia necatrix, UniProt A0A1W2TNW3, E122R)
T3 construct: gene SAMD00023353_4301030; His-tag from pET28a (BamHI/XhoI), codon-optimized gene, E. coli BL21(DE3), Ni-NTA purified; homodimer by homology model
Description: as §1

T2 sequence (A0A1W2TNW3 whole entry E122Q): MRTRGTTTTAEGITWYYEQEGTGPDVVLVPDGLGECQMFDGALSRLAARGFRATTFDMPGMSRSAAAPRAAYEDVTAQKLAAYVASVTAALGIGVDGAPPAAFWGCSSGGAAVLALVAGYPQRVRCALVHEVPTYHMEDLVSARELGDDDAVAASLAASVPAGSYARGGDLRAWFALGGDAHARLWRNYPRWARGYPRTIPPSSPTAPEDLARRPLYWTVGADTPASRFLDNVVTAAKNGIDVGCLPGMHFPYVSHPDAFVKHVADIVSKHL
T3 sequence (A0A1W2TNW3 whole entry E122R): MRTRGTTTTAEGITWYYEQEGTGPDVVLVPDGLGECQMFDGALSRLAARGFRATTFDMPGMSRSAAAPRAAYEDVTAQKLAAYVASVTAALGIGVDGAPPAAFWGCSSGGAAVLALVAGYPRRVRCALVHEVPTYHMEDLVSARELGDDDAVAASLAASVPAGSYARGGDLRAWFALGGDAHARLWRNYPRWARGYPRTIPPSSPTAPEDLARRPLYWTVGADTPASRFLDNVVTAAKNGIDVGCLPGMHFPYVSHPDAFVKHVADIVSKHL
T1 sequence (A0A1W2TNW3 entry or part of it): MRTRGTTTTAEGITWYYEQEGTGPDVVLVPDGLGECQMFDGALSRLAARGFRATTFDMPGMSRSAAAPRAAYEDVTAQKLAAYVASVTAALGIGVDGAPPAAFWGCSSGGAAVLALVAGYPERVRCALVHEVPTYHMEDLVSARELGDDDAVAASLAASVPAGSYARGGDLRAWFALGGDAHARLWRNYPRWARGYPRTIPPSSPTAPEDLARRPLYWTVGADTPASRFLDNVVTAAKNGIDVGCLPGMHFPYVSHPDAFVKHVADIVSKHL

Structure (SMILES): C[C@H]1CCCC(=O)CCC/C=C/c2cc(O)cc(O)c2C(=O)O1 [ZEN]
- Km (ZHRnZ [1]): 67.6 µM
- Km (ZHRnZ [2]): 271 µM
- Km (ZHRnZ [3]): 25.5 µM
